Results: patent US5239084A, “Substituted aminoalkyl biphenyl compounds” (Hoffmann-La Roche Inc., priority 1990, dated 1993)
Values after ≈ are worked out from the molar mass of the structure shown. Values joined by “and” are separate entries in the source; they are usually repeats but may differ in a detail not shown here. Equal entries are not always repeated. Structures can show the parent of a compound that is named as a salt. Where two headings read alike, the source gives them in different places.

Experiments:
[1] = target: T1, 2,3-epoxysqualene-lanosterol cyclase (Candida albicans, UniProt Q04782); test: inhibition of 2,3-epoxysqualene-lanosterol cyclase from Candida albicans (cell-free extract, 14C-squalene epoxide); format: biochemical
T1 construct: there was obtained a cell-free extract (CFE) as the supernatant; endogenous in cells; host or cells: Candida albicans culture, protoplasts ruptured, cell-free extract (10000 g supernatant)
T1 sequence (Q04782 whole entry): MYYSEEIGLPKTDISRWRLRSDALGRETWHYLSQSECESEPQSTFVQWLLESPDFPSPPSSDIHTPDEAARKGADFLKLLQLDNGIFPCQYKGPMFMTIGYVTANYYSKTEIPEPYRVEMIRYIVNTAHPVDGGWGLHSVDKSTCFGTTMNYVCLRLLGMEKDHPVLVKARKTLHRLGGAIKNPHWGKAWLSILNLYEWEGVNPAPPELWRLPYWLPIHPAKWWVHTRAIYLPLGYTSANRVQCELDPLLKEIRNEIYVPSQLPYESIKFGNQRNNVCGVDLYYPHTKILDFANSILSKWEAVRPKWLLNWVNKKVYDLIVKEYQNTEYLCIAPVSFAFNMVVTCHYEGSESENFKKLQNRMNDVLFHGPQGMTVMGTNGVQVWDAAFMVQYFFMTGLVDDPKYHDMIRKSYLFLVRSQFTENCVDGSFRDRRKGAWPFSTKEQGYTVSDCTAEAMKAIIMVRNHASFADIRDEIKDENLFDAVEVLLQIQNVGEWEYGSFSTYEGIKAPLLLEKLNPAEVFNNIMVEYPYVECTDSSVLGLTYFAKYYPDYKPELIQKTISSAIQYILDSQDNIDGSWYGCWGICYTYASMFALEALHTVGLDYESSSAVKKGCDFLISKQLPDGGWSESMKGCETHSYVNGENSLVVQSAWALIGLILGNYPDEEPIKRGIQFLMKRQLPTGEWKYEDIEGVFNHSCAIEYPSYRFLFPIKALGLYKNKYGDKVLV

C. albicans H12 = test: agar dilution method, C. albicans H12; format: cell-based, Candida albicans
C. albicans H29 = test: agar dilution method, C. albicans H29; format: cell-based, Candida albicans
C. albicans 3153 = test: agar dilution method, C. albicans 3153; format: cell-based, Candida albicans
C. albicans B5 = test: agar dilution method, C. albicans B5; format: cell-based, Candida albicans
C. albicans B4 = test: agar dilution method, C. albicans B4; format: cell-based, Candida albicans; conditions: for MIC: Candida albicans, B4, 48 h
C. albicans 3152 = test: agar dilution method, C. albicans 3152; format: cell-based, Candida albicans; conditions: Candida albicans, 48 h, alone, 37° C., 2 days
[2] = cell-free extract, pH 6.9, 30° C., 1 hour, read-out: IC50 (converted)
[3] = in combination with compound 20
[4] = in combination with compound 14

With `CC(c1ccc(-c2ccc(C(=O)c3ccccc3)cc2)cc1)N(C)C` (racemic) [Compound 2, rac-4'-[1-(dimethylamino)ethyl]-4-biphenylyl phenyl ketone hydrochloride] the IC50 [1, 2] was 219 nM.

Compound `C=CCN(C)C(C)c1ccc(-c2ccc(C(=O)c3ccccc3)cc2)cc1` (racemic) [Compound 18, rac-4'-[1-(Allylmethylamino)ethyl]-4-biphenylyl phenyl ketone hydrochloride] has an IC50 [1] of 90 nM.

`CN(C)Cc1ccc(-c2ccc(C(=O)c3ccccc3)cc2)cc1` [Compound 1, 4'-[(dimethylamino)methyl]-4-biphenylyl phenyl ketone hydrochloride] showed an IC50 [1, 2] of 284 nM.

In the case of `CN(C)Cc1ccc(-c2ccc(C(=O)c3ccc(F)cc3)cc2)cc1` [Compound 3, 4'-[(Dimethylamino)methyl]-4-biphenyl p-fluorophenyl ketone hydrochloride], the IC50 [1, 2] is reported as 300 nM.

With `CN(C)Cc1ccc(-c2ccc(C(=O)c3ccc(Cl)cc3Cl)cc2)cc1` [Compound 4, 2,4-dichlorophenyl 4'-[(dimethylamino)methyl]-4-biphenyl ketone hydrochloride] the IC50 [1, 2] was 200 nM.

Compound `CN(C)Cc1ccc(-c2ccc(C(=O)c3ccc([N+](=O)[O-])cc3)cc2)cc1` [Compound 5, 4'-[(Dimethylamino)methyl]-4-biphenylyl p-nitrophenyl ketone hydrochloride] has an IC50 [1, 2] of 290 nM.

`CN(C)Cc1ccc(-c2ccc(C(=O)c3ccc(Br)cc3)cc2)cc1` [Compound 6, p-Bromophenyl 4'-[(dimethylamino)methyl]-4-biphenylyl ketone hydrochloride] was tested, and the IC50 [1, 2] was 102 nM.

`CN(C)Cc1ccc(-c2ccc(C(=O)c3ccc(Cl)cc3Cl)cc2Cl)cc1` [Compound 7] gave an IC50 [1, 2] of 239 nM.

For `CN(C)Cc1ccc(-c2ccc(C(=O)c3ccc([N+](=O)[O-])cc3Cl)cc2)cc1` [Compound 8, 2-Chloro-4-nitrophenyl 4'-[(dimethylamino)methyl]-4-biphenyl ketone hydrochloride], the IC50 [1, 2] was 111 nM.

Compound `CN(C)C(C)(C)c1ccc(-c2ccc(C(=O)c3ccccc3)cc2)cc1` [Compound 9, 4'-[1-(dimethylamino)-1-methylethyl]-4-biphenylyl phenyl ketone hydrochloride] has an IC50 [1, 2] of 2500 nM.

For `CN(C)Cc1ccc(-c2ccc(C(=O)c3ccc(I)cc3)cc2)cc1` [Compound 10, 4'-[(Dimethylamino)methyl]-4-biphenylyl p-iodophenyl ketone hydrochloride], the IC50 [1, 2] was 98.4 nM.

For `CN(C)Cc1ccc(-c2ccc(C(=O)c3ccc(C#N)cc3)cc2)cc1` [Compound 11, p-[[(4'-[(Dimethylamino)methyl]-4-biphenylyl]carbonyl]-benzonitrile hydrochloride], the IC50 [1, 2] was 170 nM.

Compound `CN(C)Cc1ccc(-c2ccc(C(=O)c3cccc4ccccc34)cc2)cc1` [Compound 12, 4'-[(Dimethylamino)methyl]-4-biphenylyl 1-naphthyl ketone hydrochloride] has an IC50 [1, 2] of 771 nM.

Work on `CN(C)Cc1ccc(-c2ccc(C(=O)c3ccc4ccccc4c3)cc2)cc1` [Compound 13, 4'-[(Dimethylamino)methyl]-4-biphenylyl 2-naphthyl ketone hydrochloride] yielded an IC50 [1, 2] of 522 nM.

`C=CCN(C)Cc1ccc(-c2ccc(C(=O)c3ccc(F)cc3)cc2)cc1` [Compound 15, 4'-[(Allylmethylamino)methyl]-4-biphenylyl p-fluorophenyl ketone hydrochloride] was tested, and the IC50 [1] was 100 nM.

Work on `C=CCN(C)Cc1ccc(-c2ccc(C(=O)c3ccc(Cl)cc3Cl)cc2)cc1` [Compound 16, 2,4-dichlorophenyl 4'-(allylmethylamino)-methyl]-4-biphenylyl ketone hydrochloride] yielded an IC50 [1, 2] of 39 nM.

With `C=CCN(C)Cc1ccc(-c2ccc(C(=O)c3ccc([N+](=O)[O-])cc3)cc2)cc1` [Compound 17] the IC50 [1, 2] was 41.4 nM.

`C=CCN(C)Cc1ccc(-c2ccc(C(=O)c3ccc(C#N)cc3)cc2)cc1` [Compound 19, p-[[4'-[(Allylmethylamino)methyl]-4-biphenylyl]carbonyl]-benzonitrile hydrochloride] gave an IC50 [1] of 109 nM.

Work on `C=CCN(C)Cc1ccc(-c2ccc(C(=O)c3ccc(Cl)cc3Cl)cc2Cl)cc1` [Compound 21] yielded an IC50 [1, 2] of 58.5 nM.

`C=CCN(C)Cc1ccc(-c2ccc(C(=O)c3cccc4ccccc34)cc2)cc1` [Compound 22, 4'-[(Allylmethylamino)methyl]-4-biphenylyl 1-naphthyl ketone hydrochloride] showed an IC50 [1] of 434 nM.

For `C=CCN(C)Cc1ccc(-c2ccc(C(=O)c3ccc4ccccc4c3)cc2)cc1` [Compound 23, 4'-[(Allylmethylamino)methyl]-4-biphenylyl 2-naphthyl ketone hydrochloride], the IC50 [1] was 409 nM.

With `C=CCN(C)Cc1ccc(-c2ccc(C(=O)c3ccc([N+](=O)[O-])cc3Cl)cc2)cc1` [Compound 24, 4'-[[(Allylmethylamino)methyl]-4-biphenylyl 2-chloro-4-nitrophenyl ketone hydrochloride] the IC50 [1, 2] was 26.1 nM.

`CCN(C)Cc1ccc(-c2ccc(C(=O)c3ccccc3)cc2)cc1` [Compound 25, 4'-[Ethylmethylamino)methyl]-4-biphenylyl phenyl ketone hydrochloride] was tested, and the IC50 [1, 2] was 137 nM.

In the case of `CNCc1ccc(-c2ccc(C(=O)c3ccccc3)cc2)cc1` [Compound 26, 4'-[(Methylamino)methyl]-4-biphenylyl phenyl ketone hydrochloride], the IC50 [1, 2] is reported as 592 nM.

Work on `CN(C)Cc1ccc(-c2ccc(C(=O)c3ccc(Br)cc3Br)cc2)cc1` [Compound 27] yielded an IC50 [1, 2] of 50.7 nM.

`C=CCN(C)Cc1ccc(-c2ccc(C(=O)c3ccc(Br)cc3Br)cc2)cc1` [Compound 28] was tested, and the IC50 [1, 2] was 40.1 nM.

In the case of `COc1ccccc1C(=O)c1ccc(-c2ccc(CN(C)C)cc2)cc1` [Compound 29], the IC50 [1, 2] is reported as 550 nM.

With `CN(C)Cc1ccc(-c2ccc(C(=O)c3ccc(F)cc3F)cc2)cc1` [Compound 30] the IC50 [1, 2] was 82.5 nM.

`C=CCN(C)Cc1ccc(-c2ccc(C(=O)c3ccc(F)cc3F)cc2)cc1` [Compound 31, 2,4-difluorophenyl 4'-[(allylmethylamino)methyl]-4-biphenylyl ketone] gave an IC50 [1] of 21.2 nM.

With `Cc1ccccc1C(=O)c1ccc(-c2ccc(CN(C)C)cc2)cc1` [Compound 32] the IC50 ([1]; cell-free extract, pH 6.9, 30° C., 1 hour) was 0/03.

`C=CCN(C)Cc1ccc(-c2ccc(C(=O)c3ccccc3C)cc2)cc1` [Compound 33] gave an IC50 [1, 2] of 33.8 nM.

`C=CCN(C)Cc1ccc(-c2ccc(C(=O)c3ccccc3C)cc2)cc1` [Compound 34] was tested, and the IC50 [1, 2] was 50.6 nM.

For `CCCCCC(=O)c1ccc(-c2ccc(CN(C)C)cc2)cc1` [Compound 35, 4'-[(dimethylamino)-methyl]-4-biphenylyl pentyl ketone hydrochloride], the IC50 [1, 2] was 89.6 nM.

`CC(C)=CCCC(=O)c1ccc(-c2ccc(CN(C)C)cc2)cc1` [Compound 36, 4'-[(dimethylamino)methyl]-4-biphenylyl 4-methyl-3-pentenyl ketone hydrochloride] was tested, and the IC50 [1, 2] was 8.38 nM.

In the case of `CN(C)Cc1ccc(-c2ccc(C(=O)CCCCCCCCO)cc2)cc1` [Compound 37, 4'-[(dimethylamino)methyl]-4-biphenylyl 8-hydroxyoctyl ketone hydrochloride], the IC50 [1, 2] is reported as 42.1 nM.

In the case of `C=CCN(C)Cc1ccc(-c2ccc(C(=O)CCCCC)cc2)cc1` [Compound 38, 4'-[(allylmethylamino)methyl]-4-biphenylyl pentyl ketone hydrochloride], the IC50 [1] is reported as 62.6 nM.

With `C=CCN(C)Cc1ccc(-c2ccc(C(=O)CCC=C(C)C)cc2)cc1` [Compound 39, 4'-[(allylmethylamino)methyl]-4-biphenylyl 4-methyl-3-pentenyl ketone] the IC50 [1] was 25.9 nM.

With `C=CCN(C)Cc1ccc(-c2ccc(C(=O)CCCCCCCCO)cc2)cc1` [Compound 40, 4'-[(allylmethylamino)methyl]-4-biphenylyl 8-hydroxyoctyl ketone fumarate] the IC50 [1] was 17.8 nM.

In the case of `CC(=O)N1CCN(c2ccc(OCC3COC(Cn4ccnc4)(c4ccc(Cl)cc4Cl)O3)cc2)CC1` (stereo not drawn) [ketoconazole, reference compound], the MIC (C. albicans H12; Candida albicans, H12, 48 h, alone, 37° C., 2 days) is reported as 5 µg/mL (≈ 9.41 µM), the MIC alone (C. albicans H12; alone, 37° C., 2 days) is reported as 10 µg/mL (≈ 18.8 µM) and the “MIC of sterol biosynthesis inhibitor in combination” value (C. albicans H12; [3]) is reported as 0.15 µg/mL and 0.075 µg/mL. The MIC (C. albicans H29; Candida albicans, H29, 48 h, alone, 37° C., 2 days) was 0.15 µg/mL (≈ 0.282 µM), the “MIC of sterol biosynthesis inhibitor in combination” value (C. albicans H29; [4]) was 0.019 µg/mL and 0.038 µg/mL and the “MIC of sterol biosynthesis inhibitor in combination” value (C. albicans H29; [3]) was 0.019 µg/mL. The MIC (C. albicans 3153; Candida albicans, 3153, 48 h, alone, 37° C., 2 days) was 2.5 µg/mL (≈ 4.7 µM), the “MIC of sterol biosynthesis inhibitor in combination” value (C. albicans 3153; [3]) was 0.075 µg/mL and the MIC (C. albicans B5; Candida albicans, B5, 48 h, alone, 37° C., 2 days) was 0.15 µg/mL (≈ 0.282 µM). The MIC alone (C. albicans B5; alone, 37° C., 2 days) was 0.3 µg/mL (≈ 0.565 µM), the “MIC of sterol biosynthesis inhibitor in combination” value (C. albicans B5; [4]) was 0.019 µg/mL and 0.038 µg/mL and the “MIC of sterol biosynthesis inhibitor in combination” value (C. albicans B5; [3]) was 0.019 µg/mL. The MIC (C. albicans B4; alone, 37° C., 2 days) was 2.5 µg/mL (≈ 4.7 µM), the MIC alone (C. albicans B4; alone, 37° C., 2 days) was 5 µg/mL (≈ 9.41 µM) and the “MIC of sterol biosynthesis inhibitor in combination” value (C. albicans B4; [4]) was 0.075 µg/mL and 0.15 µg/mL. The “MIC of sterol biosynthesis inhibitor in combination” value (C. albicans B4; [3]) was 0.075 µg/mL and the MIC (C. albicans 3152) was 2.5 µg/mL (≈ 4.7 µM).

In the case of `CN(C/C=C/C#CC(C)(C)C)Cc1cccc2ccccc12` [terbinafine, reference compound], the “MIC of sterol biosynthesis inhibitor in combination” value (C. albicans H12; [4]) is reported as 1.5 µg/mL, the “MIC of sterol biosynthesis inhibitor in combination” value (C. albicans H12; [3]) is reported as 0.75 µg/mL and the “MIC of sterol biosynthesis inhibitor in combination” value (C. albicans H29; [4]) is reported as 3.0 µg/mL. For the same compound, the “MIC of sterol biosynthesis inhibitor in combination” value (C. albicans H29; [3]) was 0.75 µg/mL, the “MIC of sterol biosynthesis inhibitor in combination” value (C. albicans 3153; [4]) was 3.0 µg/mL and 1.5 µg/mL and the “MIC of sterol biosynthesis inhibitor in combination” value (C. albicans 3153; [3]) was 1.50 µg/mL. For the same compound, the “MIC of sterol biosynthesis inhibitor in combination” value (C. albicans B5; [4]) was 3.0 µg/mL, the “MIC of sterol biosynthesis inhibitor in combination” value (C. albicans B5; [3]) was 0.7 µg/mL and the MIC (C. albicans B4; alone, 37° C., 2 days) was 100 µg/mL (≈ 343 µM). The “MIC of sterol biosynthesis inhibitor in combination” value (C. albicans B4; [4]) was 3.0 µg/mL and the “MIC of sterol biosynthesis inhibitor in combination” value (C. albicans B4; [3]) was 1.5 µg/mL.
